Data: BigSolDB 2.1
Values joined by “and” are separate entries in the source; they are usually repeats but may differ in a detail not shown here. Equal entries are not always repeated.

Work on `C[C@@H](O[C@H]1OCCN(Cc2n[nH]c(=O)[nH]2)[C@H]1c1ccc(F)cc1)c1cc(C(F)(F)F)cc(C(F)(F)F)c1` yielded a solubility (mole fraction) (in acetone, 284.75 K) of 0.00512, a solubility (mole fraction) (in acetone, 289.85 K) of 0.00582 and a solubility (mole fraction) (in acetone, 291.45 K) of 0.00601. For the same compound, the solubility (mole fraction) (in acetone, 295.95 K) was 0.00663, the solubility (mole fraction) (in acetone, 299.85 K) was 0.00719 and the solubility (mole fraction) (in acetone, 301.45 K) was 0.00741. It also gave a solubility (mole fraction) (in acetone, 303.75 K) of 0.00778, a solubility (mole fraction) (in acetone, 305.65 K) of 0.00808 and a solubility (mole fraction) (in acetone, 307.55 K) of 0.0084. It also gave a solubility (mole fraction) (in acetone, 313.85 K) of 0.00955, a solubility (mole fraction) (in acetone, 317.75 K) of 0.0104 and a solubility (mole fraction) (in acetone, 324.65 K) of 0.0118. It also gave a solubility (mole fraction) (in acetonitrile, 285.55 K) of 0.000172, a solubility (mole fraction) (in acetonitrile, 289.55 K) of 0.000196 and a solubility (mole fraction) (in acetonitrile, 293.45 K) of 0.000235. For the same compound, the solubility (mole fraction) (in acetonitrile, 295.95 K) was 0.000262, the solubility (mole fraction) (in acetonitrile, 302.85 K) was 0.000344 and the solubility (mole fraction) (in acetonitrile, 304.35 K) was 0.000368. It also gave a solubility (mole fraction) (in acetonitrile, 306.55 K) of 0.000398, a solubility (mole fraction) (in acetonitrile, 309.55 K) of 0.000444 and a solubility (mole fraction) (in acetonitrile, 312.35 K) of 0.000509. The solubility (mole fraction) (in acetonitrile, 318.85 K) was 0.00063, the solubility (mole fraction) (in acetonitrile, 320.85 K) was 0.00067 and the solubility (mole fraction) (in acetonitrile, 327.95 K) was 0.000853. For the same compound, the solubility (mole fraction) (in ethanol, 283.55 K) was 0.00166, the solubility (mole fraction) (in ethanol, 290.85 K) was 0.00209 and the solubility (mole fraction) (in ethanol, 293.55 K) was 0.00223. It also gave a solubility (mole fraction) (in ethanol, 295.95 K) of 0.0024, a solubility (mole fraction) (in ethanol, 298.35 K) of 0.00251 and a solubility (mole fraction) (in ethanol, 301.55 K) of 0.00279. For the same compound, the solubility (mole fraction) (in ethanol, 303.85 K) was 0.00294, the solubility (mole fraction) (in ethanol, 306.25 K) was 0.00316 and the solubility (mole fraction) (in ethanol, 308.25 K) was 0.00333. For the same compound, the solubility (mole fraction) (in ethanol, 315.25 K) was 0.00396, the solubility (mole fraction) (in ethanol, 318.45 K) was 0.00432 and the solubility (mole fraction) (in ethanol, 324.85 K) was 0.00505. The solubility (mole fraction) (in methanol, 284.45 K) was 0.00314, the solubility (mole fraction) (in methanol, 288.75 K) was 0.00343 and the solubility (mole fraction) (in methanol, 292.15 K) was 0.00374. The solubility (mole fraction) (in methanol, 296.35 K) was 0.00405, the solubility (mole fraction) (in methanol, 298.45 K) was 0.00422 and the solubility (mole fraction) (in methanol, 300.75 K) was 0.00445 and 0.00463. It also gave a solubility (mole fraction) (in methanol, 302.65 K) of 0.00495, a solubility (mole fraction) (in methanol, 306.65 K) of 0.00513 and a solubility (mole fraction) (in methanol, 308.45 K) of 0.00568. It also gave a solubility (mole fraction) (in methanol, 313.65 K) of 0.00619, a solubility (mole fraction) (in methanol, 318.25 K) of 0.00676 and a solubility (mole fraction) (in n-butanol, 285.45 K) of 0.00115. It also gave a solubility (mole fraction) (in n-butanol, 288.85 K) of 0.00131, a solubility (mole fraction) (in n-butanol, 293.25 K) of 0.00154 and a solubility (mole fraction) (in n-butanol, 295.45 K) of 0.00164. It also gave a solubility (mole fraction) (in n-butanol, 298.15 K) of 0.00177, a solubility (mole fraction) (in n-butanol, 301.75 K) of 0.002 and a solubility (mole fraction) (in n-butanol, 303.75 K) of 0.00219. The solubility (mole fraction) (in n-butanol, 306.35 K) was 0.00235, the solubility (mole fraction) (in n-butanol, 308.85 K) was 0.00258 and the solubility (mole fraction) (in n-butanol, 313.45 K) was 0.00292. The solubility (mole fraction) (in n-butanol, 317.45 K) was 0.00335, the solubility (mole fraction) (in n-butanol, 322.25 K) was 0.00392 and the solubility (mole fraction) (in n-propanol, 283.75 K) was 0.00127. The solubility (mole fraction) (in n-propanol, 290.75 K) was 0.00162, the solubility (mole fraction) (in n-propanol, 294.75 K) was 0.00187 and the solubility (mole fraction) (in n-propanol, 296.95 K) was 0.00198. It also gave a solubility (mole fraction) (in n-propanol, 298.55 K) of 0.00207, a solubility (mole fraction) (in n-propanol, 300.15 K) of 0.00215 and a solubility (mole fraction) (in n-propanol, 303.05 K) of 0.00241. The solubility (mole fraction) (in n-propanol, 306.25 K) was 0.00262, the solubility (mole fraction) (in n-propanol, 308.75 K) was 0.00285 and the solubility (mole fraction) (in n-propanol, 314.35 K) was 0.00331. The solubility (mole fraction) (in n-propanol, 318.35 K) was 0.0037 and the solubility (mole fraction) (in n-propanol, 325.35 K) was 0.00463.
